Like-named read-outs stand apart in the source and are kept apart here. Non-standard residues stand in square brackets, D forms with d. Residues, ends and D or L forms follow the SMILES beside them. Nle = CCCC[C@H](N)C(=O)O
Experiments:
Frog (Rana pipiens) Skin [1] = details: cited from earlier work; for Relative Potency Frog: relative to alpha-MSH = 1.0, selective fragments of alpha-MSH, previous research
[2] = test system: Lizard (Anolis carolinensis) Skin; details: relative to alpha-MSH = 1.0; selective fragments of alpha-MSH, previous research; cited from earlier work
[3] = test system: Lizard (Anolis carolinensis) Skin; type: cell-based
Description: (§1) The biological potencies of alpha-MSH, the linear and cyclic analogues were determined by their ability to stimulate melanosome dispersion in vitro in the frog and lizard bioassays. This in vitro assay provides clear cut dose response curves (between 2.5×10^-11 and 4×10^-10 M) and can detect minimal concentration of alpha-MSH of about 10^-11 M. The assay is based upon the centrifugal dispersion of melanosomes (melanin granules) within the dendritic processes of integumental dermal melanophores leading to darkening of the skin. All the test solutions were prepared via serial dilutions from a stock solution (10^-4 M). The frogs (Rana pipiens) used in these evaluations were obtained from Kons Scientific, Germantown, Wis., and the lizards (Anolis carolinensis) were from the Snake Farm, La Place, La.

Frog (Rana pipiens) Skin [4] = type: cell-based
Description: as §1

[5] = cyclic analogues, alpha-MSH = 1.0

Compound | Relative Potency Frog (Frog (Rana pipiens) Skin [1]) | Relative Potency Lizard [2] | Biological Potency Lizard [3] | Residual Activity Lizard (prolonged action) ([3]; linear analogues) | Biological Potency Frog (Frog (Rana pipiens) Skin [4]) | Residual Activity Frog (prolonged action) (Frog (Rana pipiens) Skin [4]; linear analogues) | also measured
Ac--[Nle^4,D--Phe^7 ]-alpha-MSH1-13 NH2 | 60.0 | 5.0 | – | – | – | – | –
Ac[Nle^4, D--Phe^7 ]-alpha-MSH4-11 NH2 | 0.16 | 8.0 | – | – | – | – | –
Ac--[Nle^4 ]-alpha-MSH4-10 NH2 | 0.002 | 0.06 | – | – | – | – | –
Ac--[Nle^4 ]-alpha-MSH4-11 NH2 | 0.002 | 1.0 | – | – | – | – | –
CCCC[C@H](NC(C)=O)C(=O)N[C@@H](CCC(=O)O)C(=O)N[C@@H](Cc1c[nH]cn1)C(=O)N[C@H](Cc1ccccc1)C(=O)N[C@@H](CCCNC(=N)N)C(=O)N[C@@H](Cc1c[nH]c2ccccc12)C(=O)N[C@@H](CCCCN)C(N)=O [Analogue 6] | – | – | 8.0 | P(-) | 0.2 | P(-) | –
Ac-Met-Glu-His-Phe-Arg-Trp-Gly-NH2 [Ac-alpha-MSH4-10 NH2] | 0.0003 | 0.004 | – | – | – | – | melanocyte stimulating activity in frog skin (Frog (Rana pipiens) Skin [1]; compared to the native hormone): weak agonist
CCCC[C@H](NC(C)=O)C(=O)N[C@H]1CCC(=O)NCCCC[C@@H](C(N)=O)NC(=O)[C@H](Cc2c[nH]c3ccccc23)NC(=O)[C@H](CCCNC(=N)N)NC(=O)[C@@H](Cc2ccccc2)NC(=O)[C@H](Cc2c[nH]cn2)NC1=O [Analogue 16] | – | – | – | – | – | – | Residual Activity Lizard (prolonged action) ([3]; cyclic analogues): p(+); Biological Potency Lizard [3, 5]: 9.0; Residual Activity Frog (prolonged action) (Frog (Rana pipiens) Skin [4]; cyclic analogues): p(+); Biological Potency Frog (Frog (Rana pipiens) Skin [4]; [5]): 0.5
CCCC[C@H](NC(C)=O)C(=O)N[C@@H](CCC(=O)O)C(=O)N[C@@H](Cc1c[nH]cn1)C(=O)N[C@@H](Cc1ccccc1)C(=O)N[C@@H](CCCNC(=N)N)C(=O)N[C@@H](Cc1c[nH]c2ccccc12)C(=O)N[C@@H](CCCCN)C(N)=O [Analogue 13] | – | – | 0.08 | P(-) | 0.001 | P(+) | –
CCCC[C@H](NC(C)=O)C(=O)N[C@H]1CC(=O)NCC[C@@H](C(N)=O)NC(=O)[C@H](Cc2c[nH]c3ccccc23)NC(=O)[C@H](CCCNC(=N)N)NC(=O)[C@@H](Cc2ccccc2)NC(=O)[C@H](Cc2c[nH]cn2)NC1=O [Analogue 19] | – | – | – | – | – | – | Residual Activity Lizard (prolonged action) ([3]; cyclic analogues): p(-); Biological Potency Lizard [3, 5]: 5.0; Residual Activity Frog (prolonged action) (Frog (Rana pipiens) Skin [4]; cyclic analogues): p(-); Biological Potency Frog (Frog (Rana pipiens) Skin [4]; [5]): 1.0
CCCC[C@H](NC(C)=O)C(=O)N[C@@H](CCC(=O)O)C(=O)N[C@@H](Cc1c[nH]cn1)C(=O)N[C@H](Cc1ccccc1)C(=O)N[C@@H](CCCNC(=N)N)C(=O)N[C@@H](Cc1c[nH]c2ccccc12)C(=O)N[C@@H](CCCN)C(N)=O [Analogue 8] | – | – | 8.0 | P(-) | 0.6 | P(-) | –
Ac--[Nle^4, D--Phe^7 ]-alpha-MSH4-10 NH2 | 0.02 | 10.0 | – | – | – | – | –
CCCC[C@H](NC(=O)[C@H](CO)NC(=O)[C@H](Cc1ccc(O)cc1)NC(=O)[C@H](CO)NC(C)=O)C(=O)N[C@@H](CC(=O)O)C(=O)N[C@@H](Cc1c[nH]cn1)C(=O)N[C@H](Cc1ccccc1)C(=O)N[C@@H](CCCNC(=N)N)C(=O)N[C@@H](Cc1c[nH]c2ccccc12)C(=O)N[C@@H](CCCCN)C(=O)NCC(=O)N1CCC[C@H]1C(=O)N[C@H](C(N)=O)C(C)C [Analogue 2] (Ac-SYS[Nle]DH[dF]RWKGPV-NH2) | – | – | 8.0 | P(-) | 9.0 | P(+) | –

Reference: patent publication US5714576A, “Linear analogs of alpha-msh fragments” (Competitive Technologies, Inc., priority 1997, dated 1998)
